Conditions: Hot wire method

F/C=C/C(F)(F)F [trans-1,3,3,3-tetrafluoropropene]
Conditions	thermal conductivity [W/m/K]
322.82 K, 587 kPa, Gas	0.01562
322.86 K, 21602 kPa, Liquid	0.08015
322.89 K, 858 kPa, Gas	0.01585
322.9 K, 15321 kPa, Liquid	0.07653
322.91 K, 884 kPa, Gas	0.01588
322.91 K, 5442 kPa, Liquid	0.06937
322.93 K, 431 kPa, Gas	0.01557
322.94 K, 5376 kPa, Liquid	0.06973
322.99 K, 96 kPa, Gas	0.01599
323 K, 710 kPa, Gas	0.01574
323.07 K, 301 kPa, Gas	0.01559
323.18 K, 586 kPa, Gas	0.01563
323.19 K, 193 kPa, Gas	0.01574
323.23 K, 856 kPa, Gas	0.01588
323.26 K, 882 kPa, Gas	0.01587
323.3 K, 430 kPa, Gas	0.01563
323.36 K, 707 kPa, Gas	0.01574
323.41 K, 96 kPa, Gas	0.0162
323.46 K, 301 kPa, Gas	0.01566
323.55 K, 585 kPa, Gas	0.01566
323.61 K, 193 kPa, Gas	0.01581
323.71 K, 429 kPa, Gas	0.01566
323.86 K, 96 kPa, Gas	0.01599
323.88 K, 301 kPa, Gas	0.01569
324.05 K, 193 kPa, Gas	0.01583
324.33 K, 96 kPa, Gas	0.01609
331.18 K, 96 kPa, Gas	0.01637
331.19 K, 198 kPa, Gas	0.01658
331.21 K, 298 kPa, Gas	0.01665
331.4 K, 96 kPa, Gas	0.0162
331.42 K, 198 kPa, Gas	0.01638
331.43 K, 298 kPa, Gas	0.01653
331.64 K, 96 kPa, Gas	0.01611
331.65 K, 197 kPa, Gas	0.01629
331.67 K, 298 kPa, Gas	0.0164
331.9 K, 96 kPa, Gas	0.01602
331.9 K, 298 kPa, Gas	0.01635
331.91 K, 197 kPa, Gas	0.01618
332.16 K, 298 kPa, Gas	0.01629
332.17 K, 198 kPa, Gas	0.01612
332.17 K, 1166 kPa, Gas	0.01695
332.18 K, 1084 kPa, Gas	0.01688
332.3 K, 442 kPa, Gas	0.01671
332.33 K, 813 kPa, Gas	0.0168
332.38 K, 585 kPa, Gas	0.01673
332.42 K, 298 kPa, Gas	0.01634
332.43 K, 600 kPa, Gas	0.0167
332.46 K, 434 kPa, Gas	0.01674
332.46 K, 1166 kPa, Gas	0.01705
332.47 K, 1082 kPa, Gas	0.01688
332.52 K, 198 kPa, Gas	0.0166
332.63 K, 813 kPa, Gas	0.01684
332.65 K, 442 kPa, Gas	0.01674
332.7 K, 96 kPa, Gas	0.01695
332.71 K, 584 kPa, Gas	0.0167
332.75 K, 598 kPa, Gas	0.01664
332.76 K, 1166 kPa, Gas	0.01708
332.79 K, 1079 kPa, Gas	0.01686
332.8 K, 434 kPa, Gas	0.01674
332.9 K, 198 kPa, Gas	0.01664
332.91 K, 871 kPa, Gas	0.01664
332.97 K, 813 kPa, Gas	0.01681
333.01 K, 444 kPa, Gas	0.01648
333.08 K, 1166 kPa, Gas	0.01705
333.11 K, 1077 kPa, Gas	0.0169
333.13 K, 96 kPa, Gas	0.017
333.26 K, 868 kPa, Gas	0.01661
333.31 K, 198 kPa, Gas	0.01672
333.42 K, 1165 kPa, Gas	0.01702
333.46 K, 1075 kPa, Gas	0.01692
333.56 K, 96 kPa, Gas	0.01706
333.6 K, 298 kPa, Gas	0.01659
333.74 K, 197 kPa, Gas	0.01673
333.82 K, 441 kPa, Gas	0.01653
333.98 K, 435 kPa, Gas	0.01662
334.02 K, 96 kPa, Gas	0.01704
334.02 K, 298 kPa, Gas	0.01661
334.19 K, 197 kPa, Gas	0.01672
334.51 K, 96 kPa, Gas	0.01712
340.58 K, 3036 kPa, Liquid	0.06257
340.6 K, 1565 kPa, Liquid	0.06077
340.63 K, 3034 kPa, Liquid	0.06242
340.65 K, 1563 kPa, Liquid	0.06068
340.7 K, 96 kPa, Gas	0.01742
340.73 K, 194 kPa, Gas	0.01765
340.73 K, 5177 kPa, Liquid	0.06477
340.75 K, 8139 kPa, Liquid	0.06735
340.75 K, 8199 kPa, Liquid	0.06725
340.78 K, 5176 kPa, Liquid	0.06447
340.8 K, 8202 kPa, Liquid	0.06713
340.82 K, 3032 kPa, Liquid	0.06247
340.86 K, 1561 kPa, Liquid	0.06064
340.88 K, 3031 kPa, Liquid	0.06222
340.92 K, 97 kPa, Gas	0.01718
340.92 K, 1560 kPa, Liquid	0.06043
340.94 K, 194 kPa, Gas	0.0174
341.03 K, 8138 kPa, Liquid	0.06739
341.04 K, 20095 kPa, Liquid	0.07528
341.06 K, 16393 kPa, Liquid	0.07294
341.07 K, 5175 kPa, Liquid	0.06447
341.08 K, 8204 kPa, Liquid	0.06709
341.09 K, 3029 kPa, Liquid	0.06217
341.09 K, 21968 kPa, Liquid	0.07668
341.1 K, 8133 kPa, Liquid	0.06713
341.1 K, 12136 kPa, Liquid	0.07037
341.1 K, 20086 kPa, Liquid	0.07523
341.12 K, 16392 kPa, Liquid	0.07302
341.13 K, 1563 kPa, Liquid	0.06043
341.14 K, 96 kPa, Gas	0.01698
341.15 K, 5174 kPa, Liquid	0.06431
341.15 K, 21974 kPa, Liquid	0.07662
341.16 K, 194 kPa, Gas	0.01722

Liquid
Conditions	thermal conductivity [W/m/K]
323.15 K	0.06606
333.15 K	0.06293

Source: the NIST ThermoML archive (doi:10.1021/je200811n)
